In brackets after ≈: the same amount, converted by molar mass. Read-outs that look alike come from different tables or passages of the source.
How the values were obtained:
Type in all cases: cell-based
[1] = tested on: Corynebacterium urealyticum JMI 2015_30; experiment: MIC, agar dilution drug sensitivity test; settings: Aerobic
[2] = tested on: Eggerthella lenta ATCC 43055; experiment: MIC, agar dilution drug sensitivity test; settings: ATCC43055, Table 1
[3] = tested on: Bifidobacterium infantis subsp. Infantis ATCC 15702; experiment: MIC, agar dilution drug sensitivity test; settings: ATCC15702, Table 1
[4] = tested on: Staphylococcus saprophyticus JMI 2016_703; experiment: MIC, agar dilution drug sensitivity test; settings: Aerobic
[5] = tested on: Morganella morganii MMX 6123; experiment: MIC, agar dilution drug sensitivity test; settings: MMX6123, Table 1
[6] = tested on: Enterobacter aerogenes ATCC 13048; experiment: MIC, agar dilution drug sensitivity test; settings: Klebsiella aerogenes, ATCC13048, Enterobacter aerogenes ATCC 13048, read-out: MIC
[7] = tested on: Haemophilus influenzae ATCC 49247; experiment: MIC, microscale broth dilution drug sensitivity test
Procedure: (§1) In this embodiment, compound I-rifamycin-quinolizidone dual-action molecule is used in a drug sensitivity test on pathogenic bacteria associated with hepatic encephalopathy, the pathogenic bacteria including the above ammonia-producing bacteria. Except that Haemophilus is tested using the microscale broth dilution method, all the other bacteria are tested using the agar dilution method consistent with that in the Guideline of the Clinical and Laboratory Standards Institute (CLSI; 1-3). All the other drug susceptibility tests are performed under anaerobic conditions except that some selective isolates are tested under both aerobic and anaerobic conditions. Control compounds include metronidazole, rifampicin, clindamycin (under anaerobic conditions) and ciprofloxacin (under aerobic and anaerobic conditions). The tested clinical isolates may be reference strains obtained from American Type Culture Collection, ATCC, Manassas, Va. After being received, the strains are respectively inoculated on appropriate agar plates and placed under optimized conditions for growth. The growing strains are cloned in the broth containing cryoprotectant to prepare bacterial suspensions, and the bacterial suspensions are subpackaged and then stored in freezing at −80° C. Before test, the frozen bacteria are inoculated into appropriate agar dishes and cultured for growth. Anaerobic bacteria grow for 48 hours at 35° C. in a Bactron II oxygen-free cabinet (Shel Lab, Cornelius, Oreg.) before test. Haemophilus Test Medium (HTM, Teknova, Hollister, Calif.; Art. No.: 895120) is used to perform drug sensitivity test on Hemophilus using the microscale broth dilution method under aerobic and anaerobic conditions. Preparation and storage of all the above broths are performed in accordance with CLSI (1-3).

[8] = tested on: Haemophilus parainfluenzae ATCC 49247; experiment: as above; settings: ATCC49247; Haemophilus parainfluenzae ATCC 49247; Aerobic; read-out: MIC
Procedure: as §1

[9] = tested on: Streptococcus pneumoniae ATCC 49619; experiment: MIC, agar dilution drug sensitivity test; settings: read-out: MIC
[10] = tested on: Escherichia coli ATCC 25922; experiment: MIC, agar dilution drug sensitivity test; settings: ATCC25922, Table 1
[11] = tested on: Bordetella avium ATCC 6945; experiment: MIC, agar dilution drug sensitivity test; settings: Bordetella avium, ATCC6945, Bordetella avium ATCC 6945, read-out: MIC
[12] = tested on: Serratia marcescens ATCC 43862; experiment: MIC, agar dilution drug sensitivity test; settings: Serratia marcescens, ATCC43862, Serratia marcescens ATCC 43862, read-out: MIC
[13] = tested on: Proteus vulgaris MMX 6454; experiment: MIC, agar dilution drug sensitivity test; settings: MMX6454, Table 1
[14] = tested on: Alcaligenes faecalis JMI 940880; experiment: MIC, agar dilution drug sensitivity test; settings: JMI940880, Aerobic
[15] = tested on: Actinomyces naeslundii JMI 534283; experiment: MIC, agar dilution drug sensitivity test; settings: JMI534283, Aerobic
[16] = tested on: Klebsiella oxytoca JMI 933995; experiment: MIC, agar dilution drug sensitivity test; settings: JMI933995, Table 1
[17] = tested on: Fusobacterium necrophorum ATCC 25286; experiment: MIC, agar dilution drug sensitivity test; settings: ATCC25286, Table 1
[18] = tested on: Proteus vulgaris ATCC 1331; experiment: MIC, agar dilution drug sensitivity test; settings: Proteus vulgaris, ATCC1331, Proteus vulgaris ATCC 1331, read-out: MIC
[19] = ATCC49247, Haemophilus influenzae ATCC 49247, Aerobic
[20] = ATCC49247, Haemophilus influenzae ATCC 49247, Anaerobic
[21] = ATCC49619, Streptococcus pneumoniae ATCC 49619, Aerobic
[22] = ATCC49619, Streptococcus pneumoniae ATCC 49619, Anaerobic

| SMILES | MIC [1] | MIC [2] | MIC [3] | MIC [4] | MIC [5] | MIC ([6]; Aerobic) | MIC ([6]; Anaerobic) | MIC [7, 19] | MIC [7, 20] | MIC [8] | MIC [9, 21] | MIC [9, 22] | MIC [10] | MIC ([11]; Aerobic) | MIC ([11]; Anaerobic) | MIC ([12]; Aerobic) | MIC ([12]; Anaerobic) | MIC [13] | MIC [14] | MIC [15] | other results |
| --- | --- | --- | --- | --- | --- | --- | --- | --- | --- | --- | --- | --- | --- | --- | --- | --- | --- | --- | --- | --- | --- |
| O=C(O)c1cn(C2CC2)c2cc(N3CCNCC3)c(F)cc2c1=O [Ciprofloxacin, ciprofloxacin] | > 16 µg/mL | 1 µg/mL (≈ 3.02 µM) | 2 µg/mL (≈ 6.04 µM) | 1 µg/mL (≈ 3.02 µM) | 1 µg/mL (≈ 3.02 µM) | 0.03 µg/mL (≈ 0.0905 µM) | 2 µg/mL (≈ 6.04 µM) | ≤ 0.12 µg/mL | ≤ 0.12 µg/mL | ≤ 0.12 µg/mL | 1 µg/mL (≈ 3.02 µM) | 2 µg/mL (≈ 6.04 µM) | 0.008 µg/mL (≈ 0.0241 µM) | 1 µg/mL (≈ 3.02 µM) | 2 µg/mL (≈ 6.04 µM) | 0.12 µg/mL (≈ 0.362 µM) | 0.25 µg/mL (≈ 0.754 µM) | 0.12 µg/mL (≈ 0.362 µM) | 1 µg/mL (≈ 3.02 µM) | 2 µg/mL (≈ 6.04 µM) | MIC [16]: 0.015 µg/mL (≈ 0.0453 µM); MIC [17]: 1 µg/mL (≈ 3.02 µM); MIC ([18]; Aerobic): 0.03 µg/mL (≈ 0.0905 µM); MIC ([18]; Anaerobic): 0.03 µg/mL (≈ 0.0905 µM) |
| CO[C@H]1/C=C/O[C@@]2(C)Oc3c(C)c(O)c4c(O)c(c(/C=N/N5CCC(N(C)C6([C@@H]7CCN(c8c(F)cn9c(=O)c(C(=O)O)cc(C%10CC%10)c9c8C)C7)CC6)CC5)c(O)c4c3C2=O)NC(=O)/C(C)=C\C=C\[C@H](C)[C@H](O)[C@@H](C)[C@@H](O)[C@@H](C)[C@H](OC(C)=O)[C@@H]1C [Compound I, (R)-3-[(4-{1-[1-(3-carboxy-1-cyclopropyl-7-fluoro-9-methyl-4-oxo-4H-quinolizine-8-yl)-pyrrolidin-3-yl-cyclopropyl]-methylamino}-piperidin-1-ylimino)-methylene]-rifamycin SV] | 0.03 µg/mL (≈ 0.0249 µM) | 0.06 µg/mL (≈ 0.0498 µM) | 2 µg/mL (≈ 1.66 µM) | 0.5 µg/mL (≈ 0.415 µM) | 16 µg/mL (≈ 13.3 µM) | 1 µg/mL (≈ 0.83 µM) | > 64 µg/mL | 0.12 µg/mL (≈ 0.0996 µM) | 0.12 µg/mL (≈ 0.0996 µM) | 0.25 µg/mL (≈ 0.207 µM) | 0.06 µg/mL (≈ 0.0498 µM) | 0.06 µg/mL (≈ 0.0498 µM) | 0.12 µg/mL (≈ 0.0996 µM) | 4 µg/mL (≈ 3.32 µM) | > 64 µg/mL | 4 µg/mL (≈ 3.32 µM) | > 64 µg/mL | 2 µg/mL (≈ 1.66 µM) | 32 µg/mL (≈ 26.5 µM) | 0.03 µg/mL (≈ 0.0249 µM) | MIC [16]: 4 µg/mL (≈ 3.32 µM); MIC [17]: 0.12 µg/mL (≈ 0.0996 µM); MIC ([18]; Aerobic): 0.5 µg/mL (≈ 0.415 µM); MIC ([18]; Anaerobic): > 64 µg/mL |
